Test results published in ChEMBL document CHEMBL1132753, “Structure-activity relationship study of asiatic acid derivatives against beta amyloid (A beta)-induced neurotoxicity” (2000).

System: B103 cell line
Experiment: In vitro percent protective effect against Amyloid Beta(A beta)-induced neurotoxicity in B103 cells
Format: functional, Rattus norvegicus
Set-up: concentration or dose not given beside the values

Compound | Protection
C[C@H]1[C@H](C)CC[C@]2(C(=O)O[C@@H]3O[C@H](CO[C@@H]4O[C@H](CO)[C@@H](O[C@@H]5O[C@H](C)[C@H](O)[C@@H](O)[C@H]5O)[C@H](O)[C@H]4O)[C@@H](O)[C@H](O)[C@H]3O)CC[C@]3(C)C(=CC[C@@H]4[C@@]5(C)C[C@@H](O)[C@H](O)[C@@](C)(CO)[C@@H]5CC[C@]43C)[C@H]12 [ASIATICOSIDE] | 24%
C[C@H]1[C@H](C)CC[C@]2(C(=O)O)CC[C@]3(C)C(=CC[C@@H]4[C@@]5(C)C[C@@H](O)[C@H](O)[C@@](C)(CO)[C@@H]5CC[C@]43C)[C@H]12 [ASIATIC ACID] | 97%
C[C@H]1[C@H](C)CC[C@]2(C(=O)O)CC[C@]3(C)C(=CC[C@@H]4[C@@]5(C)CC[C@H](O)[C@@](C)(CO)[C@@H]5CC[C@]43C)[C@H]12 | 87%
C[C@@H]1CC[C@]2(C(=O)O)CC[C@]3(C)C(=CCC4[C@@]5(C)CCCC(C)(C)C5CC[C@]43C)C2[C@H]1C (stereo partly specified) | 40%
COC(=O)[C@]12CC[C@@H](C)[C@H](C)C1C1=CCC3[C@@]4(C)C[C@@H](O)[C@H](O)[C@@](C)(CO)C4CC[C@@]3(C)[C@]1(C)CC2 (stereo partly specified) | 58%
C[C@H]1[C@H](C)CC[C@]2(C(=O)O)CC[C@]3(C)C(=CC[C@@H]4[C@@]5(C)C[C@@H](O)[C@H](O)[C@@](C)(CO)[C@@H]5[C@H](O)C[C@]43C)[C@H]12 [MADECASSIC ACID] | 56%
C[C@@H]1CC[C@]2(C(=O)O)CC[C@]3(C)C(=CCC4[C@@]5(C)C[C@@H](O)[C@@H]6OC(C)(C)OC[C@@]6(C)C5CC[C@]43C)C2[C@H]1C (stereo partly specified) | 66%
CC(=O)O[C@@H]1C[C@@]2(C)C(CC[C@]3(C)C2CC=C2C4[C@@H](C)[C@H](C)CC[C@]4(C(=O)O)CC[C@]23C)[C@](C)(CO)[C@H]1O (stereo partly specified) | 22%
CCCCCCCCOCOC(=O)[C@]12CC[C@@H](C)[C@H](C)C1C1=CCC3[C@@]4(C)CC(O)[C@H](O)[C@@](C)(CO)C4CC[C@@]3(C)[C@]1(C)CC2 (stereo partly specified) | 22%
C[C@@H]1CC[C@]2(C(=O)O)CC[C@]3(C)C(=CCC4[C@@]5(C)CC(=O)[C@H](O)[C@@](C)(CO)C5CC[C@]43C)C2[C@H]1C (stereo partly specified) | 50%
C[C@@H]1CC[C@]2(C(=O)OC3CCCCO3)CC[C@]3(C)C(=CCC4[C@@]5(C)C[C@@H](O)[C@H](O)[C@@](C)(CO)C5CC[C@]43C)C2[C@H]1C (stereo partly specified) | 92%
